Patent publication US10441663B2, “Methods for treating cancer” (Bicycle Therapeutics Limited, priority 2016, dated 2019)
*1 amine or outer side, *2 acyl side, *3 side chain or, on linkers, in order; H or OH if unused. Where a SMILES comes first, the peptide text is derived from it. Bridges are numbered along the chain shown (N, C = ends). [ ]: non-standard residue; d: D form. The star is where a group is joined. X1 = COc1cc2cc(c1Cl)N(C)C(=O)C[C@H](OC(=O)[C@H](C)N(C)C(=O)CCSSC(C)CCC(=O)*)[C@]1(C)O[C@H]1[C@H](C)[C@@H]1C[C@@](O)(NC(=O)O1)[C@H](OC)/C=C/C=C(\C)C2; 1Nal = N[C@@H](Cc1cccc2ccccc12)C(=O)O; TBMB = c1c(C[*:1])cc(C[*:3])cc1C[*:2]; Tle = CC(C)(C)[C@H](N)C(=O)O; βAla = NCCC(=O)O; Sar = CNCC(=O)O

What was measured:
MDA-MB-231 xenograft = assay: In vivo efficacy of BT1718 in MDA-MB-231 xenograft; parameters: species or system Mus Musculus; key to Best response at 10 mg/kg: CR complete response; PR partial response
Experimental: (§1) The objective of this study was to evaluate the in vivo anti-tumor efficacy of BT1718in treatment of HT1080, NCI-H292, NCI-H1975, MDA-MB-231, HCC1806, RPMI2650, HCT-15, HT-29 and SNU-16 xenograft in BALB/c nude mice.
(§2) The HT1080, NCI-H292, NCI-H1975, MDA-MB-231, HCC1806, RPMI2650, HCT-15, HT-29 and SNU-16 tumor cells were maintained in vitro as a monolayer culture in medium supplemented with 10% heat inactivated fetal bovine serum at 37° C. in an […]. The tumor cells will be routinely subcultured twice weekly by trypsin-EDTA treatment. The cells growing in an exponential growth phase will be harvested and counted for tumor inoculation.
(§3) Mouse was inoculated subcutaneously at the right flank with tumor cells for tumor development. The animals were randomized and treatment was started when the average tumor reaches certain volume for the efficacy study, the inoculating cell amounts and starting tumor size were shown as below in Table 9. The test article administration and the animal numbers in each group were shown in the experimental design in Table 10.
(§4) All the procedures related to animal handling, care and the treatment in the study were performed according to the guidelines of the Association for Assessment and Accreditation of Laboratory Animal Care (AAALAC). At the time of routine monitoring, the animals were daily checked for any effects of tumor growth and treatments on normal behavior such as mobility, food and water consumption (by looking only), body weight gain/loss (body weights were measured every day), eye/hair matting and any other abnormal effect as stated in the protocol. Death and observed clinical signs were recorded on the basis of the numbers of animals within each subset.
(§5) The major endpoint was to see if the tumor growth could be delayed or mice could be cured. Tumor size was measured three times weekly in two dimensions using a caliper, and the volume was expressed in mm^3 using the formula: V=0.5 a×b^2 where a and b are the long and short diameters of the tumor, respectively. The tumor size was then used for calculations of T/C value. The T/C value (in percent) is an indication of antitumor effectiveness; T and C are the mean volumes of the treated and control groups, respectively, on a given day.
(§6) TGI was calculated for each group using the formula: TGI (%)=[1−(Ti−T0)/(Vi−V0)]×100; Ti is the average tumor volume of a treatment group on a given day, T0 is the average tumor volume of the treatment group on the day of treatment start, Vi is the average tumor volume of the vehicle control group on the same day with Ti, and V0 is the average tumor volume of the vehicle group on the day of treatment start.
(§7) Summary statistics, including mean and the standard error of the mean (SEM), are provided for the tumor volume of each group at each time point.
(§8) Statistical analysis of difference in tumor volume among the groups was conducted on the data obtained at the best therapeutic time point after the final dose.
(§9) A one-way ANOVA was performed to compare tumor volume among groups, and when a significant F-statistics (a ratio of treatment variance to the error variance) was obtained, comparisons between groups were carried out with Games-Howell test. All data were analyzed using Prism. P<0.05 was considered to be statistically significant.

HT-29 xenograft = assay: In vivo efficacy of BT1718 in HT-29 xenograft; parameters: species or system Mus Musculus; key to Best response at 10 mg/kg: CR complete response; PR partial response
Experimental: as §1, §2, §3, §4, §5, §6, §7, §8, §9

[1] = MDA-MB-231, 10 mpk, biw, day 14

COc1cc2cc(c1Cl)N(C)C(=O)C[C@H](OC(=O)[C@H](C)N(C)C(=O)CCSSC(C)CCC(=O)NCCC(=O)N(C)CC(=O)N(C)CC(=O)N(C)CC(=O)N(C)CC(=O)N(C)CC(=O)N(C)CC(=O)N(C)CC(=O)N(C)CC(=O)N(C)CC(=O)N(C)CC(=O)N[C@@H](C)C(=O)N[C@H]1CSCc3cc4cc(c3)CSC[C@H](NC(=O)[C@@H](C)NC(=O)[C@H](Cc3cccc5ccccc35)NC(=O)[C@H](CCC(=O)O)NC(=O)[C@H](CC(N)=O)NC(=O)[C@@H](C)NC1=O)C(=O)N[C@@H](CCC(=O)O)C(=O)N[C@@H](CC(=O)O)C(=O)N[C@@H](Cc1ccccc1)C(=O)N[C@@H](Cc1ccc(O)cc1)C(=O)N[C@@H](CC(=O)O)C(=O)N[C@@H](C(C)(C)C)C(=O)N[C@H](C(N)=O)CSC4)[C@]1(C)O[C@H]1[C@H](C)[C@@H]1C[C@@](O)(NC(=O)O1)[C@H](OC)/C=C/C=C(\C)C2 (some centres unmarked) [BT1718] ({X1-βAla}-[Sar][Sar][Sar][Sar][Sar][Sar][Sar][Sar][Sar][Sar]AC[dA]NE[1Nal][dA]CEDFYD[Tle]C-NH2; linker 12-18-25 via TBMB (inferred))
tumor behaviour on resumed treatment (MDA-MB-231 xenograft; 10 mg/kg biw re-treatment): slow re-growth
Body Weight (MDA-MB-231 xenograft; 1 mpk biw, day 0): 23.4 ± 0.5 g
Tumor Volume (MDA-MB-231 xenograft; 1 mpk biw, day 0): 187 ± 6 mm^3
Body Weight (MDA-MB-231 xenograft; 1 mpk biw, day 2): 23.3 ± 0.6 g
Tumor Volume (MDA-MB-231 xenograft; 1 mpk biw, day 2): 288 ± 25 mm^3
Body Weight (MDA-MB-231 xenograft; 1 mpk biw, day 4): 23.3 ± 0.6 g
Tumor Volume (MDA-MB-231 xenograft; 1 mpk biw, day 4): 435 ± 25 mm^3
Body Weight (MDA-MB-231 xenograft; 1 mpk biw, day 7): 24.6 ± 0.5 g
Tumor Volume (MDA-MB-231 xenograft; 1 mpk biw, day 7): 636 ± 53 mm^3
Body Weight (MDA-MB-231 xenograft; 1 mpk biw, day 9): 24.6 ± 0.6 g
Tumor Volume (MDA-MB-231 xenograft; 1 mpk biw, day 9): 822 ± 117 mm^3
Body Weight (MDA-MB-231 xenograft; 1 mpk biw, day 11): 24.1 ± 0.1 g
Tumor Volume (MDA-MB-231 xenograft; 1 mpk biw, day 11): 979 ± 51 mm^3
Body Weight (MDA-MB-231 xenograft; 1 mpk biw, day 14): 24.9 ± 0.5 g
Tumor Volume (MDA-MB-231 xenograft; 1 mpk biw, day 14): 1221 ± 62 mm^3
Body Weight (MDA-MB-231 xenograft; 3 mpk biw, day 0): 23.0 ± 0.9 g
Tumor Volume (MDA-MB-231 xenograft; 3 mpk biw, day 0): 187 ± 11 mm^3
Body Weight (MDA-MB-231 xenograft; 3 mpk biw, day 2): 22.5 ± 1.0 g
Tumor Volume (MDA-MB-231 xenograft; 3 mpk biw, day 2): 281 ± 23 mm^3
Body Weight (MDA-MB-231 xenograft; 3 mpk biw, day 4): 22.3 ± 1.0 g
Tumor Volume (MDA-MB-231 xenograft; 3 mpk biw, day 4): 389 ± 21 mm^3
Body Weight (MDA-MB-231 xenograft; 3 mpk biw, day 7): 23.8 ± 1.1 g
Tumor Volume (MDA-MB-231 xenograft; 3 mpk biw, day 7): 547 ± 38 mm^3
Body Weight (MDA-MB-231 xenograft; 3 mpk biw, day 9): 23.8 ± 1.1 g
Tumor Volume (MDA-MB-231 xenograft; 3 mpk biw, day 9): 729 ± 74 mm^3
Body Weight (MDA-MB-231 xenograft; 3 mpk biw, day 11): 23.6 ± 1.1 g
Tumor Volume (MDA-MB-231 xenograft; 3 mpk biw, day 11): 829 ± 79 mm^3
Body Weight (MDA-MB-231 xenograft; 3 mpk biw, day 14): 23.9 ± 1.3 g
Tumor Volume (MDA-MB-231 xenograft; 3 mpk biw, day 14): 1021 ± 65 mm^3
Body Weight (MDA-MB-231 xenograft; 10 mpk biw, day 0): 23.3 ± 1.0 g
Tumor Volume (MDA-MB-231 xenograft; 10 mpk biw, day 0): 187 ± 10 mm^3
Body Weight (MDA-MB-231 xenograft; 10 mpk biw, day 2): 22.9 ± 1.3 g
Tumor Volume (MDA-MB-231 xenograft; 10 mpk biw, day 2): 270 ± 25 mm^3
Body Weight (MDA-MB-231 xenograft; 10 mpk biw, day 4): 22.2 ± 0.9 g
Tumor Volume (MDA-MB-231 xenograft; 10 mpk biw, day 4): 312 ± 27 mm^3
Body Weight (MDA-MB-231 xenograft; 10 mpk biw, day 7): 23.3 ± 1.2 g
Tumor Volume (MDA-MB-231 xenograft; 10 mpk biw, day 7): 294 ± 31 mm^3
Body Weight (MDA-MB-231 xenograft; 10 mpk biw, day 9): 23.0 ± 1.1 g
Tumor Volume (MDA-MB-231 xenograft; 10 mpk biw, day 9): 248 ± 23 mm^3
Body Weight (MDA-MB-231 xenograft; 10 mpk biw, day 11): 21.6 ± 1.0 g
Tumor Volume (MDA-MB-231 xenograft; 10 mpk biw, day 11): 204 ± 19 mm^3
Body Weight (MDA-MB-231 xenograft; 10 mpk biw, day 14): 24.3 ± 1.1 g
Tumor Volume (MDA-MB-231 xenograft; 10 mpk biw, day 14): 158 ± 20 mm^3
Best response at 10 mg/kg (MDA-MB-231 xenograft; MDA-MB-231, 10 mg/kg): CR
TGI (MDA-MB-231 xenograft; MDA-MB-231, 1 mpk, biw, day 14): 7.6%
Tumor Volume (MDA-MB-231 xenograft; MDA-MB-231, 1 mpk, biw, day 14): 1221 ± 62 mm^3
TGI (MDA-MB-231 xenograft; MDA-MB-231, 3 mpk, biw, day 14): 25.5%
Tumor Volume (MDA-MB-231 xenograft; MDA-MB-231, 3 mpk, biw, day 14): 1021 ± 65 mm^3
TGI (MDA-MB-231 xenograft; [1]): 102.6%
Tumor Volume (MDA-MB-231 xenograft; [1]): 158 ± 20 mm^3
Minimally Effective Dose IV BIW (MDA-MB-231 xenograft; MDA-MB-231, dose leading to tumor-stasis): <10 mg/kg
dosing suspension until re-growth to 150 mm3 (MDA-MB-231 xenograft; after 10 mg/kg biw): 3 weeks
tumor volume after regression (MDA-MB-231 xenograft; after 2-3 weeks 10 mg/kg biw): below 50 mm3
tumor response (HT-29 xenograft; 10 mg/kg biw): significant tumor inhibition effect, but didn't cause tumor regression
Body Weight (HT-29 xenograft; 1 mpk biw, day 0): 23.0 ± 0.2 g
Tumor Volume (HT-29 xenograft; 1 mpk biw, day 0): 160 ± 27 mm^3
Body Weight (HT-29 xenograft; 1 mpk biw, day 2): 22.8 ± 0.2 g
Tumor Volume (HT-29 xenograft; 1 mpk biw, day 2): 189 ± 18 mm^3
Body Weight (HT-29 xenograft; 1 mpk biw, day 4): 22.3 ± 0.5 g
Tumor Volume (HT-29 xenograft; 1 mpk biw, day 4): 203 ± 13 mm^3
Body Weight (HT-29 xenograft; 1 mpk biw, day 6): 22.3 ± 0.5 g
Tumor Volume (HT-29 xenograft; 1 mpk biw, day 6): 260 ± 18 mm^3
Body Weight (HT-29 xenograft; 1 mpk biw, day 8): 22.3 ± 0.4 g
Tumor Volume (HT-29 xenograft; 1 mpk biw, day 8): 273 ± 35 mm^3
Body Weight (HT-29 xenograft; 1 mpk biw, day 11): 22.4 ± 0.7 g
Tumor Volume (HT-29 xenograft; 1 mpk biw, day 11): 453 ± 45 mm^3
Body Weight (HT-29 xenograft; 1 mpk biw, day 13): 22.3 ± 0.7 g
Tumor Volume (HT-29 xenograft; 1 mpk biw, day 13): 533 ± 43 mm^3
Body Weight (HT-29 xenograft; 3 mpk biw, day 0): 22.2 ± 0.2 g
Tumor Volume (HT-29 xenograft; 3 mpk biw, day 0): 159 ± 36 mm^3
Body Weight (HT-29 xenograft; 3 mpk biw, day 2): 22.1 ± 0.4 g
Tumor Volume (HT-29 xenograft; 3 mpk biw, day 2): 178 ± 41 mm^3
Body Weight (HT-29 xenograft; 3 mpk biw, day 4): 22.0 ± 0.5 g
Tumor Volume (HT-29 xenograft; 3 mpk biw, day 4): 214 ± 51 mm^3
Body Weight (HT-29 xenograft; 3 mpk biw, day 6): 22.4 ± 0.6 g
Tumor Volume (HT-29 xenograft; 3 mpk biw, day 6): 268 ± 70 mm^3
Body Weight (HT-29 xenograft; 3 mpk biw, day 8): 22.6 ± 0.6 g
Tumor Volume (HT-29 xenograft; 3 mpk biw, day 8): 297 ± 87 mm^3
Body Weight (HT-29 xenograft; 3 mpk biw, day 11): 22.0 ± 0.4 g
Tumor Volume (HT-29 xenograft; 3 mpk biw, day 11): 472 ± 129 mm^3
Body Weight (HT-29 xenograft; 3 mpk biw, day 13): 22.2 ± 0.3 g
Tumor Volume (HT-29 xenograft; 3 mpk biw, day 13): 616 ± 145 mm^3
Body Weight (HT-29 xenograft; 10 mpk biw, day 0): 24.6 ± 1.2 g
Tumor Volume (HT-29 xenograft; 10 mpk biw, day 0): 164 ± 32 mm^3
Body Weight (HT-29 xenograft; 10 mpk biw, day 2): 23.6 ± 1.2 g
Tumor Volume (HT-29 xenograft; 10 mpk biw, day 2): 177 ± 28 mm^3
Body Weight (HT-29 xenograft; 10 mpk biw, day 4): 22.1 ± 1.5 g
Tumor Volume (HT-29 xenograft; 10 mpk biw, day 4): 195 ± 36 mm^3
Body Weight (HT-29 xenograft; 10 mpk biw, day 6): 22.9 ± 1.5 g
Tumor Volume (HT-29 xenograft; 10 mpk biw, day 6): 232 ± 54 mm^3
Body Weight (HT-29 xenograft; 10 mpk biw, day 8): 21.2 ± 1.2 g
Tumor Volume (HT-29 xenograft; 10 mpk biw, day 8): 198 ± 44 mm^3
Body Weight (HT-29 xenograft; 10 mpk biw, day 11): 21.2 ± 1.7 g
Tumor Volume (HT-29 xenograft; 10 mpk biw, day 11): 182 ± 46 mm^3
Body Weight (HT-29 xenograft; 10 mpk biw, day 13): 21.7 ± 1.0 g
Tumor Volume (HT-29 xenograft; 10 mpk biw, day 13): 146 ± 32 mm^3
Best response at 10 mg/kg (HT-29 xenograft; HT-29, 10 mg/kg): PR
TGI (HT-29 xenograft; HT-29, 1 mpk, biw, day 14): 24.0%
Tumor Volume (HT-29 xenograft; HT-29, 1 mpk, biw, day 14): 533 ± 43 mm^3
TGI (HT-29 xenograft; HT-29, 3 mpk, biw, day 14): 6.8%
Tumor Volume (HT-29 xenograft; HT-29, 3 mpk, biw, day 14): 616 ± 145 mm^3
TGI (HT-29 xenograft; HT-29, 10 mpk, biw, day 14): 103.6%
Tumor Volume (HT-29 xenograft; HT-29, 10 mpk, biw, day 14): 146 ± 32 mm^3
Minimally Effective Dose IV BIW (HT-29 xenograft; HT-29, dose leading to tumor-stasis): 10 mg/kg
